Measurements published in patent US9265922B2, “System and method for improving outcome of cerebral ischemia” (ASTUCE, INC., priority 2012, dated 2016).
“Also recorded” adds a separate entry of the source.

Legend:
intubated rodents = test: Cerebral blood flow by cortical laser Doppler during intranasal nitric oxide in intubated rodents; format: in vivo
Protocol: (§1) In intubated rodents, the inventors have shown that cerebral blood flow increases by 100% within 60 minutes of intranasal nitric oxide delivery.

[1] = tested on: carotid artery occlusion model; test: Carotid artery occlusion model, Speckle laser Doppler, intranasal nitric oxide; format: in vivo, rodents
Protocol: as §1
Increase in cerebral blood flow is attributable to focal intranasal or intra-oral effect of nitric oxide rather than to systemic absorption of the gas. […] The effect on cerebral blood flow during intranasal delivery of nitric oxide with concomitant air inhalation into the lungs is therefore a focal effect on intranasal and intracranial vasculature attributable specifically to nitric oxide. […] In a non-intubated patient, nitric oxide inhalation can be prevented by occluding the nasal cavity anterior or posterior to the site of gas delivery. This is achieved by means of an anterior occlusion device such a rigid member, an expandable member, a compressible member, a sponge, a porous member, a plug, a balloon, foam and/or combinations of the foregoing, which prevent inhalation through the nostrils while maintaining a high concentration of nitric oxide in the nasal cavity. A non-intubated patient may be allowed to inhale air into the lungs during nitric oxide delivery into the nasal cavity by an optional central lumen with the distal orifice beyond the sites of nasal gas delivery and occlusion device.

[2] = tested on: patients with cerebral ischemia; test: CT perfusion scanning in intubated patients with cerebral ischemia before and after intranasal nitric oxide; format: in vivo, human
[3] = tested on: humans (normal volunteers); test: Tolerability of intranasal nitric oxide in normal volunteers; format: in vivo, human; conditions: high concentration, delivered intra-nasally and without inhalation
Text: While nitric oxide may be given intranasally and without inhalation into the lungs to intubated, comatose individuals the tolerability of intranasal nitric oxide in awake humans has not previously been investigated. The inventors have tested the effect of nitric oxide in humans (normal volunteers) during intranasal delivery. […] Therefore it can easily be tolerated by awake, non-intubated patients.

[N]=O [nitric oxide]
cerebral blood flow (FIG. 8, cortical laser Doppler) (intubated rodents; during intranasal administration): doubling of cerebral blood flow
cerebral blood flow increase (intubated rodents; within 60 minutes of intranasal non-inhaled nitric oxide delivery): 100%
perfusion in the ischemic hemisphere ([1]; both during the carotid occlusion and following ligature release (FIG. 9)): improved
cerebral ischemia (FIG. 9, Speckle laser Doppler tracing) ([1]; intubated rodents given intranasal nitric oxide): reduction of cerebral ischemia
increase in perfusion on L (Cerebral Blood Flow, ACA Watershed) ([2]; Post Rx versus Pre Rx, left ischemic hemisphere): 67% increase in
Mean Transit Time, Changes in ACA Watershed ([2]; Post Rx, Pre Rx 4 sec delay): Normalization
Cerebral Blood Flow, Changes in ACA Watershed ([2]; Post Rx, Pre Rx 37% lower on ischemic side): Normalization,
cerebral perfusion by CT perfusion scanning ([2]; intubated patients with cerebral ischemia, during treatment with intranasal nitric oxide (FIGS. 10, 11)): improvement in cerebral perfusion; also recorded: augmentation of cerebral perfusion and normalization of regional perfusion abnormalities
tolerability of gas treatment [3]: tolerated
